Values of other authors in patent US8377904B2, “Composition and method for use in cartilage affecting conditions” (Hill's Pet Nutrition, Inc., priority 2004, dated 2013).

Test system: pain of osteoarthritis

Q: Which results are given for `C[S+](CC[C@H](N)C(=O)[O-])C[C@H]1O[C@@H](n2cnc3c(N)ncnc32)[C@H](O)[C@@H]1O` (some centres unmarked) [SAMe, S-adenosyl-L methionine]?
A: Outcome compared with non-steroidal anti-inflammatory medication (meta analysis): not associated with statistically significant difference in outcomes; effective size in favor of SAMe compared to a placebo (one randomized clinical trial): 0.20
